pEC50: −log10 of the molar value. Read-outs that look alike come from different tables or passages of the source. Starred links: 1 amine or outer side, 2 acyl side, 3 side chain; linkers in the order of their positions; H or OH if unused. Non-standard residues stand in square brackets, D forms with d. Groups on a side chain read outwards from the residue. No end group written: not given here. *: point of attachment. C18 diacid = O=C(O)CCCCCCCCCCCCCCCCC(=O)*; αMePhe(2-F) = C[C@](N)(Cc1ccccc1F)C(=O)O; γGlu = O=C(O)[C@H](CCC(=O)[*:2])N[*:1]; αMe4Pal = C[C@](N)(Cc1ccncc1)C(=O)O; αMeY = C[C@](N)(Cc1ccc(O)cc1)C(=O)O; 4Pal = N[C@@H](Cc1ccncc1)C(=O)O; αMeL = CC(C)C[C@](C)(N)C(=O)O; αMeS = C[C@](N)(CO)C(=O)O; Orn = NCCC[C@H](N)C(=O)O; AEEA = NCCOCCOCC(=O)O; Aib = CC(C)(N)C(=O)O
Tests used:
Type in all cases: cell-based
hGLP-1R [1] = target: T1, hGLP-1R (Homo sapiens, UniProt P43220); test: Functional cAMP activity in the presence of 1% HSA; settings: read-out: cAMP Rel EC50, hGLP-1R
hGcgR = hGcgR (Homo sapiens, UniProt P47871); test: Functional cAMP activation in the presence of 0.1% casein (no HSA); settings: read-out: Relative cAMP EC50, hGcgR;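 further: intracellular cAMP rise after 30 min at 37 °C, read by HTRF against a cAMP standard curve, scaled from buffer only (0%) to maximal control ligand response (100%)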
human GcgR = human GcgR (Homo sapiens, UniProt P47871); test: Functional cAMP activity in the presence of 1% HSA; settings: read-out: cAMP Rel EC50, hGcgR
hGIPR [2] = target: T2, hGIPR (Homo sapiens, UniProt P48546); test: Functional cAMP activation in the presence of 0.1% casein (no HSA); settings: read-out: Relative cAMP EC50, hGIPR;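 further: intracellular cAMP rise after 30 min at 37 °C read by HTRF against a standard curve, scaled between buffer alone (0%) and top control ligand concentration (100%), four-parameter fit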
T2 sequence (P48546 22-466): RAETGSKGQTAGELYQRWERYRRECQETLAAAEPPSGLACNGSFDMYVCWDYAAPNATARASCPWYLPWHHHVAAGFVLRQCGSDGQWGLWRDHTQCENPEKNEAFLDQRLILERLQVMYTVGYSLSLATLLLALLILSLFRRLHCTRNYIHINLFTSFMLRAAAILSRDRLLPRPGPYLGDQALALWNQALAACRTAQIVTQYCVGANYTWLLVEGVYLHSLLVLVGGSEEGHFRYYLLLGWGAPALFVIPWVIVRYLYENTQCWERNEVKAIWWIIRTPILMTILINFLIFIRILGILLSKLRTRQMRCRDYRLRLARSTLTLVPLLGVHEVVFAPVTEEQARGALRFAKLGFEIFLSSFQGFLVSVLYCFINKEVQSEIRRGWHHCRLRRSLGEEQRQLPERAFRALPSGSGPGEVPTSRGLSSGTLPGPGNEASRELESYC

hGIPR [3] = target: T2, hGIPR; test: Functional cAMP activity in the presence of 1% HSA; settings: read-out: cAMP Rel EC50, hGIPR
hGLP-1R [4] = target: T1, hGLP-1R; test: Functional cAMP activation in the presence of 0.1% casein (no HSA); settings: read-out: Relative cAMP EC50, hGLP-1R;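 further: intracellular cAMP rise after 30 min at 37 °C read by HTRF, normalized between buffer only (0%) and maximal control ligand (100%), four-parameter variable-slope fit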
[5] = HEK-293 clonal cell line, 1% HSA, geometric mean of relative EC50
[6] = in the presence of 0.1% casein (no HSA), geometric mean of relative EC50
[7] = in the presence of 0.1% casein (no HSA), geometric mean
[8] = 0.1% casein, no HSA, geometric mean

T1 sequence (P43220 24-463): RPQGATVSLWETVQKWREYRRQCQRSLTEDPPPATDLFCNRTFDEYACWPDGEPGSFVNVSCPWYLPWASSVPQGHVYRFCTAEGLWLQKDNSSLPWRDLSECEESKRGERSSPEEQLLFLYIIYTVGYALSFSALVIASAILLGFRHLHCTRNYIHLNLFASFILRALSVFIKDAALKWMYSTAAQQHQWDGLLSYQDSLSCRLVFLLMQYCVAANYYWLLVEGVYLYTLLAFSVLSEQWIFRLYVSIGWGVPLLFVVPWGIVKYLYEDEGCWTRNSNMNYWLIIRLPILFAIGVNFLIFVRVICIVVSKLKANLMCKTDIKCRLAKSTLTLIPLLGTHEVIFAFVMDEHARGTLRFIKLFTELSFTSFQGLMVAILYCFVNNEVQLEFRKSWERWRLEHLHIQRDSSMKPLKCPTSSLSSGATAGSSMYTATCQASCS
Sequence of human GcgR (P47871 26-477): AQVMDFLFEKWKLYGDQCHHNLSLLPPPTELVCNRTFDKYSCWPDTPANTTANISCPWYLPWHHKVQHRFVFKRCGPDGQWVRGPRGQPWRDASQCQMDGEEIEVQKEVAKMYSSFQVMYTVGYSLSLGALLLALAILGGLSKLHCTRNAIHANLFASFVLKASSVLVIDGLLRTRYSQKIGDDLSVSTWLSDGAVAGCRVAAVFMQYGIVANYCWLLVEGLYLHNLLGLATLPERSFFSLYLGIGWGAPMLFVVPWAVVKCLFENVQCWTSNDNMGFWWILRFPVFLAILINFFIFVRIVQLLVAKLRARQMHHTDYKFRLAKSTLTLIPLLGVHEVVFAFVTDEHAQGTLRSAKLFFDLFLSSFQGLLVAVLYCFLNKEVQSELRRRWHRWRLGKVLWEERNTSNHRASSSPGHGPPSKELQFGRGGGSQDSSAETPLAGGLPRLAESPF
Sequence of hGcgR (P47871 26-477): as above

Row | Substance | pEC50 (hGLP-1R [1]) | pEC50 (hGcgR) | pEC50 (human GcgR) | pEC50 (hGIPR [2]) | pEC50 (hGIPR [3]) | pEC50 (hGLP-1R [4]) | other results
1 | Y[Aib]QGT[αMePhe(2-F)]TSD[4Pal][αMeS]ILLD[Orn]K([γGlu-γGlu-C18 diacid])AQ[Aib][Orn]FI[dE][αMeY]LQEGGPSSGEPPPEGAE-NH2 [Example 546] | 7.46 | 8.44 | 6.65 | 9.60 | 7.92 | 9.29 | –
2 | Y[Aib]QGT[αMePhe(2-F)]TSD[4Pal][αMeS]I[αMeL]LD[Orn]K([AEEA-γGlu-C18 diacid])AA[Aib]EFI[dE][αMeY]LIEGGPSSGAPPPSGE-NH2 [Example 701] | 7.60 | 8.83 | 6.65 | 11.00 | 9.01 | 9.66 | –
3 | Y[Aib]QGT[αMePhe(2-F)]TSD[4Pal][αMeS]I[αMeL]LD[Orn]K([AEEA-γGlu-C18 diacid])AA[Aib]EFI[dE][αMeY]LIEGGPSSGAPPPSGGGE-NH2 [Example 745] | 7.54 | 8.73 | 6.58 | 10.92 | 8.87 | 9.67 | –
4 | Y[Aib]QGT[αMePhe(2-F)]TSD[4Pal][αMeS]I[αMeL]LD[Orn]K([AEEA-γGlu-C18 diacid])AA[Aib]EFI[dE][αMeY]LIEGGPSSGEPPPSGTE-NH2 [Example 719] | – | – | – | – | – | – | pEC50 (hGLP-1R [1]; [5]): 7.63; pEC50 (hGcgR; [6]): 8.84; pEC50 (human GcgR; [5]): 6.74; pEC50 (hGIPR [2]; [6]): 11.00; pEC50 (hGIPR [3]; [5]): 9.05; pEC50 (hGLP-1R [4]; [6]): 9.66
5 | Y[Aib]QGT[αMePhe(2-F)]TSD[4Pal][αMeS]I[αMeL]LD[Orn]K([AEEA-γGlu-C18 diacid])AQ[αMe4Pal]EFI[dE][αMeY]LIEGGPPS[Aib]EPPPEGE-NH2 [Example 1190] | 7.11 | – | 6.72 | – | 9.02 | – | pEC50 (hGcgR; [7]): 8.77; pEC50 (hGIPR [2]; [7]): 10.96; pEC50 (hGLP-1R [4]; [7]): 9.12
6 | Y[Aib]QGT[αMePhe(2-F)]TSD[4Pal][αMeS]I[αMeL]LD[Orn]K([AEEA-γGlu-C18 diacid])AQ[αMe4Pal]EFI[dE][αMeY]LIEGGPPS[Aib]EPPP[Orn]GE-NH2 [Example 1193] | 7.18 | – | 6.69 | – | 9.10 | – | pEC50 (hGcgR; [8]): 8.81; pEC50 (hGIPR [2]; [8]): 11.05; pEC50 (hGLP-1R [4]; [8]): 9.26
7 | Y[Aib]QGT[αMePhe(2-F)]TSD[4Pal][αMeS]I[αMeL]LD[Orn]K([AEEA-γGlu-C18 diacid])AQ[αMe4Pal]EFI[dE][αMeY]LIEGGPSSGAPPPESE-NH2 [Example 1146] | 7.40 | – | 6.70 | – | 9.08 | – | pEC50 (hGcgR; [7]): 8.91; pEC50 (hGIPR [2]; [7]): 11.20; pEC50 (hGLP-1R [4]; [7]): 9.55
8 | Y[Aib]QGT[αMePhe(2-F)]TSD[4Pal][αMeS]I[αMeL]LD[Orn]K([AEEA-γGlu-C18 diacid])AQ[αMe4Pal]EFI[dE][αMeY]LVEGGPSSGAPPPSGGGE-NH2 [Example 769] | 7.47 | 8.88 | 6.57 | 11.07 | 8.99 | 9.61 | –
9 | Y[Aib]QGT[αMePhe(2-F)]TSD[4Pal][αMeS]I[αMeL]LD[Orn]K([AEEA-γGlu-C18 diacid])AQ[αMe4Pal]EFI[dQ][αMeY]LIEGGPSSGAPPPSGS-NH2 [Example 1202] | 7.64 | – | 7.15 | – | 9.33 | – | pEC50 (hGcgR; [8]): 9.30; pEC50 (hGIPR [2]; [8]): 11.20; pEC50 (hGLP-1R [4]; [8]): 9.63
10 | Y[Aib]QGT[αMePhe(2-F)]TSD[4Pal][αMeS]I[αMeL]LD[Orn]K([AEEA-γGlu-C18 diacid])YQ[αMe4Pal]EFI[dE][αMeY]LVEGGPSSGAPPPSGS-NH2 [Example 767] | 7.25 | 8.95 | 6.68 | 11.10 | 8.82 | 9.52 | –

Further lines, with some results ahead:

Row | pEC50 (hGLP-1R [1]) | pEC50 (hGcgR) | pEC50 (human GcgR) | pEC50 (hGIPR [2]) | pEC50 (hGIPR [3]) | pEC50 (hGLP-1R [4]) | Substance | other results
11 | 7.21 | – | 6.50 | – | 9.17 | – | Y[Aib]QGT[αMePhe(2-F)]TSD[4Pal][αMeS]I[αMeL]LD[Orn]K([AEEA-γGlu-C18 diacid])AQ[αMe4Pal]EFI[dE][αMeY]LIEGGPPS[Aib][Orn]PPPSGSE-NH2 [Example 1198] | pEC50 (hGcgR; [8]): 8.74; pEC50 (hGIPR [2]; [8]): 11.18; pEC50 (hGLP-1R [4]; [8]): 9.32
12 | 7.34 | – | 6.59 | – | 9.22 | – | Y[Aib]QGT[αMePhe(2-F)]TSD[4Pal][αMeS]I[αMeL]LD[Orn]K([AEEA-γGlu-C18 diacid])AQ[αMe4Pal]EFI[dE][αMeY]LIEGGPPS[Aib][Orn]PPP[Orn]SE-NH2 [Example 1196] | pEC50 (hGcgR; [8]): 8.72; pEC50 (hGIPR [2]; [8]): 11.12; pEC50 (hGLP-1R [4]; [8]): 9.38
13 | 7.37 | 8.80 | 6.65 | 11.14 | 8.94 | 9.52 | Y[Aib]QGT[αMePhe(2-F)]TSD[4Pal][αMeS]I[αMeL]LD[Orn]K([AEEA-γGlu-C18 diacid])AQ[αMe4Pal]EFI[dE][αMeY]LIEGGPSSGEPPPEGTGE-NH2 [Example 763] | –
14 | 7.34 | – | 6.78 | – | 9.08 | – | Y[Aib]QGT[αMePhe(2-F)]TSD[4Pal][αMeS]I[αMeL]LD[Orn]K([AEEA-γGlu-C18 diacid])AQ[αMe4Pal]EFI[dE][αMeY]LIEGGPSSGEPPPESE-NH2 [Example 1147] | pEC50 (hGcgR; [7]): 8.93; pEC50 (hGIPR [2]; [7]): 11.12; pEC50 (hGLP-1R [4]; [7]): 9.46
15 | 7.32 | – | 6.77 | – | 9.09 | – | Y[Aib]QGT[αMePhe(2-F)]TSD[4Pal][αMeS]I[αMeL]LD[Orn]K([AEEA-γGlu-C18 diacid])AQ[αMe4Pal]EFI[dE][αMeY]LIEGGPSSGEPPPSGE-NH2 [Example 1141] | pEC50 (hGcgR; [7]): 8.94; pEC50 (hGIPR [2]; [7]): 11.04; pEC50 (hGLP-1R [4]; [7]): 9.39
16 | 7.39 | 8.71 | 6.63 | 10.92 | 8.88 | 9.41 | Y[Aib]QGT[αMePhe(2-F)]TSD[4Pal][αMeS]I[αMeL]LD[Orn]K([AEEA-γGlu-C18 diacid])AQ[αMe4Pal]EFI[dE][αMeY]LVEGGPSSGEPPPSGGGE-NH2 [Example 735] | –
17 | 7.00 | 7.99 | 6.18 | 9.75 | 7.97 | 8.88 | Y[Aib]QGT[αMePhe(2-F)]TSD[4Pal][αMeS]I[αMeL]LD[Orn]K([Glu-γGlu-C18 diacid])AQ[Aib][Orn]FI[dE][αMeY]LSEGGPSSGEPPPSGTEE-NH2 [Example 564] | –
18 | 7.64 | 8.85 | 6.81 | 10.98 | 9.06 | 9.59 | Y[Aib]QGT[αMePhe(2-F)]TSD[4Pal][αMeS]I[αMeL]LD[Orn]K([γGlu-γGlu-C18 diacid])AA[Aib]EFI[dE][αMeY]LIEGGPSSGEPPPSGGGE-NH2 [Example 748] | –
19 | 7.64 | 8.06 | 6.28 | 10.44 | 8.67 | 9.38 | Y[Aib]QGT[αMePhe(2-F)]TSD[4Pal][αMeS]I[αMeL]LD[Orn]K([γGlu-γGlu-C18 diacid])AQ[Aib]NFI[dE][αMeY]LQEGGPSSGEPPPEGTE-NH2 [Example 526] | –
20 | 7.61 | 8.15 | 6.32 | 10.48 | 8.81 | 9.36 | Y[Aib]QGT[αMePhe(2-F)]TSD[4Pal][αMeS]I[αMeL]LD[Orn]K([γGlu-γGlu-C18 diacid])AQ[Aib]QFI[dE][αMeY]LQEGGPSSGEPPPEGTE-NH2 [Example 528] | –
21 | 7.61 | 8.39 | 6.56 | 10.79 | 9.01 | 9.47 | Y[Aib]QGT[αMePhe(2-F)]TSD[4Pal][αMeS]I[αMeL]LD[Orn]K([γGlu-γGlu-C18 diacid])AQ[Aib][Orn]FI[dE]YLIEGGPSSGEPPPSGTE-NH2 [Example 521] | –
22 | 7.37 | 8.49 | 6.61 | 10.13 | 8.37 | 9.22 | Y[Aib]QGT[αMePhe(2-F)]TSD[4Pal][αMeS]I[αMeL]LD[Orn]K([γGlu-γGlu-C18 diacid])AQ[Aib][Orn]FI[dE][αMeY]LAEGGPSSGEPPPSGTEE-NH2 [Example 571] | –

Reference: patent publication US20240270821A1, “GIP/GLP1/GCG TRI-RECEPTOR AGONISTS AND USES THEREOF” (priority 2023, published 2024)
